Experimental data from BindingDB's records for patent US12173018 (Venatorx Pharmaceuticals, 2024).

Target: T1, Peptidoglycan D,D-transpeptidase FtsI (UniProt P0AD68)
T1 sequence (P0AD68 whole entry): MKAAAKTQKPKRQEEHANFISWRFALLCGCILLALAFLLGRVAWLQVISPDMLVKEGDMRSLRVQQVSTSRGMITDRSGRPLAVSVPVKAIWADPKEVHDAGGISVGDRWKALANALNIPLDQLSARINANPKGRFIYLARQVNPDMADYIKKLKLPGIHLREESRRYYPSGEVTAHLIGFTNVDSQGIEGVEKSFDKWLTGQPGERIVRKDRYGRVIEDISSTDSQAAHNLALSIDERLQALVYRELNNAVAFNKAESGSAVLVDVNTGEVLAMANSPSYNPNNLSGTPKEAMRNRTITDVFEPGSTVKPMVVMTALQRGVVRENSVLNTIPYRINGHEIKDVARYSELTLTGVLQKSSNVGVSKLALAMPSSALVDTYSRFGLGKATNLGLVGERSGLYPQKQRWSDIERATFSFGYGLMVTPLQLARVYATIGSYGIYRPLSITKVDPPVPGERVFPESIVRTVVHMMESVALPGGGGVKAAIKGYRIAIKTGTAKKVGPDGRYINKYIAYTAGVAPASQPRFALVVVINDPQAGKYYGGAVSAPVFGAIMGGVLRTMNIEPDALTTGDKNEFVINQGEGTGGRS
Experiment: Fluorescence Polarization (FP) Competition Binding Assay
Protocol: To establish assay conditions for competition binding, an enzyme titration/saturation binding experiment was initially performed. Bocillin-FL was prepared at 0.2 μM in a buffer comprised of 50 mM Hepes (pH 8.0), 300 mM NaCl and 5% (v/v) glycerol. […] FP was measured immediately upon mixing (Excitation, 490 nm; Emission, 520 nm; g-factor, 0.96), using a Cytation3 (BioTek) microplate reader and measured continuously for up to 120 minutes. […] Bocillin-FL was added and the FP immediately measured for 60 minutes (90 minutes for PBP2).

Compound	EC50
CCN1CCN(C(=O)NC(C(=O)N[C@H]2Cc3cccc(C(=O)O)c3OB2O)c2ccc(O)c(S(N)(=O)=O)c2)C(=O)C1=O (some centres not stated) [US12173018, Example 143]	< 30 µM
NCCN1CCN(C(=O)N[C@@H](C(=O)N[C@H]2Cc3cccc(C(=O)O)c3OB2O)c2ccc(O)c(O)c2Cl)C(=O)C1=O [US12173018, Example 220]	< 30 µM
